Publication PMC9749932, “A high-throughput effector screen identifies a novel small molecule scaffold for inhibition of ten-eleven translocation dioxygenase 2” (RSC Medicinal Chemistry, 2022)
Read-outs that look alike come from different tables or passages of the source.

Legend:
human TET2 [1] = biological target: T1, human TET2 (Homo sapiens, UniProt Q6N021); conditions: for inhibition of TET2: additional experiments, data not shown, assay format not stated; for IC50 / inhibition of TET2 activity (in words): MALDI assay; for IC50: resynthesized/synthesized compounds, highest concentration 200 µM; for inhibition of TET2 activity (in words): synthesized compounds
TET1 = test system: TET1; set-up: method as in PMID 35586434; conditions: cited from earlier work
TET2 = test system: TET2; set-up: method as in PMID 35586434; conditions: cited from earlier work
human TET2 [2] = biological target: T1, human TET2; conditions: FRET assay dose response; three independent experiments with technical duplicates
Experimental: Use of a DNA duplex terminally labelled with a FRET donor/acceptor dye pair (Cy3/Cy5) thereby enables measuring the amount of caC product generated from an mC duplex by TET (Fig. 1A). […] We identified an universal buffer system (50 mM potassium acetate, 20 mM Tris-acetate, 10 mM magnesium acetate, 100 μg ml^−1 BSA, pH 7.9) that was compatible with the activity of both TET2 and MspI, and thus was applicable to one pot reactions without intermediate purification steps. We incubated 0.5 μM of the DNA duplex with TET2 at different concentrations under aerobic conditions and in the presence of essential assay components, i.e. α-KG, ascorbate, dithiothreitol (DTT), and Fe(II) at 37 °C and pH 8 for 1 hour. We then added 20 U MspI enzyme to determine the caC level generated by TET2-mediated oxidation.
For screening, we premixed the annealed oligonucleotides with TET2 and all other essential components except Fe(II) in 1536-well plates, followed by the acoustic transfer of test compounds into each well at a final concentration of 50 μM. […] In order to distinguish the false-positive hits, we normalized the final Cy5 fluorescence of each well to its respective initial value immediately after MspI addition. […]
fluorescence signals were recorded on an Infinite® M1000 (Tecan). […]

Structure (SMILES)	IC50 (human TET2 [1])	other results
O=C(O)c1ccnc(Br)c1 [2-bromoisonicotinic acid, reference compound]		inhibition of TET2 (human TET2 [1]): no inhibition
Nc1nc(=O)n(-c2cccc(-c3ccccc3)c2)cc1Cl [Bobcat339]		inhibition of TET1 (TET1): not be an inhibitor; inhibition of TET2 (TET2): not be an inhibitor
CC(=O)N(O)CCCCCNC(=O)CCC(=O)N(O)CCCCCNC(=O)CCC(=O)N(O)CCCCCN [DFOA, deferoxamine]		IC50 (human TET2 [2]): 46 µM
CC(C)OS(=O)(=O)c1ccc(F)c2ncc(I)cc12 [compound 5]	> 200 µM	
CCCCCOS(=O)(=O)c1ccc(F)c2ncc(I)cc12 [compound 6]	> 200 µM	
NS(=O)(=O)c1ccc(F)c2ncc(I)cc12 [compound 8]	86.6 ± 5.6 µM	
CNS(=O)(=O)c1ccc(F)c2ncc(I)cc12 [compound 9]	> 200 µM	inhibition of TET2 activity (in words) (human TET2 [1]): inactive
O=S(=O)(c1ccc(F)c2ncc(I)cc12)N1CCCC1 [compound 10]	> 200 µM	inhibition of TET2 activity (in words) (human TET2 [1]): inactive
O=S(=O)(Nc1ccccc1)c1ccc(F)c2ncc(I)cc12 [compound 11]	23.9 ± 4.1 µM	
O=S(=O)(NCc1ccccc1)c1ccc(F)c2ncc(I)cc12 [compound 13]	> 200 µM	
O=S(=O)(NCCc1ccccc1)c1ccc(F)c2ncc(I)cc12 [compound 14]	> 200 µM	
O=S(=O)(Nc1cccc(O)c1)c1ccc(F)c2ncc(I)cc12 [compound 16]	> 200 µM	
Nc1ccccc1S(=O)(=O)O [o-anilinesulfonic acid, reference compound]		inhibition of TET2 (human TET2 [1]): no inhibition
Cc1ccc(S(=O)(=O)O)cc1 [p-toluenesulfonic acid, reference compound]		inhibition of TET2 (human TET2 [1]): no inhibition
